Assay results as given in patent publication US10815222B2, “Compounds for use in the treatment of kinetoplastid infection” (C.N.C.C.S. S.c.a.r.l. COLLEZIONE NAZIONALE DEI COMPOSTI …, priority 2016, dated 2020).

The molecules below were run on Bloodstream form of Trypanosoma brucei, strain Lister 427 (assay: Trypanosoma brucei growth inhibition assay (CellTiter-Glo, 24 h)). Conditions: T. Brucei Growth Inibition Assay, class symbols; read-out: T. Brucei GI EC50.
Format: cell-based
Method: Bloodstream form of Trypanosoma brucei, strain Lister 427 (provided by Prof. Miguel Navarro, Instituto de Parasitologia y Biomedicina “Lopez-Neyra” Avda. Conocimiento S/N Parque Tecnologico Ciencias de la Salud—Spain; ref. Navarro M. and Cross G. A. M. Molecular and Cellular Biology, 1996, Vol. 16, No. 7, pp. 3615-3625) were grown in IMDM Iscove's Modified Dulbecco's Medium (SIGMA #17633) supplemented with: 3.024 g/l sodium bicarbonate, hypoxanthine 1 mM, thymidine 0.16 mM, bathocuprione sulfonic acid 0.05 mM, cysteine 1.5 mM, ß-mercaptoethanol […] and 10% foetal bovine serum (heat-inactivated at 56° C. for 30 min). Parasites were grown at 37° C. in flasks with vented caps in a 5% CO2 incubator to a maximum cell density of about 2×10^6/ml and diluted every two-three days.
The compounds of the invention were dissolved in DMSO and transferred to assay plates by acoustic droplet ejection (ATS-100, EDC Biosystems, USA) in order to obtain an appropriate concentration and to keep the concentration of DMSO below or equal to 0.25% in the final assay volume of 30 μL. 1500 parasites resuspended in 30 μL of culture medium were then transferred to each well of a 384-well plate.
After an incubation period of 24 hours at 37° C., each well is added 15 μl of CellTiter-Glo® Reagent (Promega) and incubated at room temperature. 5-10 min post incubation, the plate is read using a luminometer (ViewLux®). A known inhibitor of the growth of T. brucei was used as the reference positive control.

| SMILES | EC50 [µM] |
| --- | --- |
| O=C(Cc1c[nH]c2ccc(O)cc12)N1CCN(CCc2ccccc2)CC1c1ncc(-c2ccc3ccccc3c2)[nH]1 (stereo not shown) | 1.01 to 5 |
| COc1ccc2nc(C(F)(F)F)n(CC(=O)N3CC[C@@H](N(C)CC4CCOC4)C[C@H]3c3ncc(-c4cc5ccccc5nc4OC)[nH]3)c2c1 (stereo partly shown) | < 0.1 |
| COc1nc2ccccc2cc1-c1cnc(C2CN(CC3CCOC3)CCN2C(=O)CCc2n[nH]c3c2CCCC3)[nH]1 (stereo not shown) | 1.01 to 5 |

Same assay, conditions: Trypanosoma brucei; T. Brucei Growth Inibition Assay, class symbols; read-out: T. Brucei GI EC50

| SMILES | EC50 [µM] |
| --- | --- |
| COc1nc2ccccc2cc1-c1cnc(C2CN(CC3CCOC3)CCN2C(=O)Cn2ccc3cc(C#N)ccc32)[nH]1 (stereo not shown) | 0.51 to 1 |
| COc1nc2ccccc2cc1-c1cnc(C2CN(CC3CCOC3)CCN2C(=O)CS(=O)(=O)c2ccccc2)[nH]1 (stereo not shown) | 1.01 to 5 |
| COc1nc2ccccc2cc1-c1cnc(C2CN(C)CCN2C(=O)Cc2c[nH]c3ncccc23)[nH]1 (stereo not shown) | 1.01 to 5 |
| COc1nc2ccccc2cc1-c1cnc(C2CN(CC3CCOC3)CCN2C(=O)Cc2sc3ccccc3c2C)[nH]1 (stereo not shown) | 0.1 to 0.5 |
| COc1nc2ccccc2cc1-c1cnc(C2CN(CC3CCOC3)CCN2C(=O)Cc2c(C)[nH]c3ccccc23)[nH]1 (stereo not shown) | 0.1 to 0.5 |
| COc1nc2ccccc2cc1-c1cnc(C2CN(CC3CCOC3)CCN2C(=O)Cc2ccc(N3CCNC3=O)cc2)[nH]1 (stereo not shown) | 1.01 to 5 |
| CCC(=O)CCC(=O)N1CCN(C(=O)Cc2c(C)[nH]c3ccc(OC)cc23)C(c2ncc(-c3ccc4ccccc4c3)[nH]2)C1 (stereo not shown) | 0.1 to 0.5 |
| COc1nc2ccccc2cc1-c1cnc(C2CN(CC3CC3)CCN2C(=O)Cc2c(C)[nH]c3ccc(F)cc23)[nH]1 (stereo not shown) | 0.1 to 0.5 |
| COc1nc2ccccc2cc1-c1cnc(C2CN(CC3CC3)CCN2C(=O)CC2=C(C)NC3C=CC=CC23)[nH]1 (stereo not shown) | 0.1 to 0.5 |
| Cc1csc(CC(=O)N2CCN(CC3CC3)CC2c2ncc(-c3ccc4ccccc4c3)[nH]2)n1 (stereo not shown) | 1.01 to 5 |
| O=C(Cc1c[nH]c2ccc(O)cc12)N1CCN(CC2CC2)CC1c1ncc(-c2ccc3ccccc3c2)[nH]1 (stereo not shown) | 1.01 to 5 |
| Cn1cc(CC(=O)N2CCN(CC3CC3)CC2c2ncc(-c3ccc4ccccc4c3)[nH]2)c2ccccc21 (stereo not shown) | 1.01 to 5 |
| Cc1[nH]c2ccccc2c1CC(=O)N1CCN(CC2CC2)CC1c1ncc(-c2ccc3ccccc3c2)[nH]1 (stereo not shown) | 0.1 to 0.5 |
| O=C(Cc1n[nH]c2ccccc12)N1CCN(CC2CC2)CC1c1ncc(-c2ccc3ccccc3c2)[nH]1 (stereo not shown) | 1.01 to 5 |
| COc1nc2ccccc2cc1-c1cnc(C2CN(Cc3ccccc3)CCN2C(=O)CC2=C(C)NC3C=CC=CC23)[nH]1 (stereo not shown) | 0.1 to 0.5 |
| O=C(Cc1c[nH]c2ccc(O)cc12)N1CCN(Cc2ccccc2)CC1c1ncc(-c2ccc3ccccc3c2)[nH]1 (stereo not shown) | 1.01 to 5 |
| Cn1cc(CC(=O)N2CCN(Cc3ccccc3)CC2c2ncc(-c3ccc4ccccc4c3)[nH]2)c2ccccc21 (stereo not shown) | 1.01 to 5 |
| O=C(Cc1n[nH]c2ccccc12)N1CCN(Cc2ccccc2)CC1c1ncc(-c2ccc3ccccc3c2)[nH]1 (stereo not shown) | 1.01 to 5 |
| Cc1[nH]c2ccccc2c1CC(=O)N1CCN(Cc2ccccc2)CC1c1ncc(-c2ccc3ccccc3c2)[nH]1 (stereo not shown) | 1.01 to 5 |
| Cc1csc(CC(=O)N2CCN(Cc3ccccc3)CC2c2ncc(-c3ccc4ccccc4c3)[nH]2)n1 (stereo not shown) | 1.01 to 5 |
| CCCCCCN1CCN(C(=O)CC2=C(C)NC3C=CC=CC23)C(c2ncc(-c3cc4ccccc4nc3O)[nH]2)C1 (stereo not shown) | 1.01 to 5 |
| CCCCCCN1CCN(C(=O)CC2=C(C)NC3C=CC=CC23)C(c2ncc(-c3cc4ccccc4nc3OC)[nH]2)C1 (stereo not shown) | 0.1 to 0.5 |
| CCCCCCN1CCN(C(=O)Cc2n[nH]c3ccccc23)C(c2ncc(-c3ccc4ccccc4c3)[nH]2)C1 (stereo not shown) | 1.01 to 5 |

| SMILES | EC50 [µM] |
| --- | --- |
| CCCCCCN1CCN(C(=O)Cc2c(C)[nH]c3ccccc23)C(c2ncc(-c3ccc4ccccc4c3)[nH]2)C1 (stereo not shown) | 0.51 to 1 |
| CCCCCCN1CCN(C(=O)Cc2c[nH]c3ccc(O)cc23)C(c2ncc(-c3ccc4ccccc4c3)[nH]2)C1 (stereo not shown) | 1.01 to 5 |
| CCCCCCN1CCN(C(=O)Cc2cn(C)c3ccccc23)C(c2ncc(-c3ccc4ccccc4c3)[nH]2)C1 (stereo not shown) | 1.01 to 5 |
| CCCCCCN1CCN(C(=O)Cc2c[nH]c3cccnc23)C(c2ncc(-c3ccc4ccccc4c3)[nH]2)C1 (stereo not shown) | 1.01 to 5 |
| CN1CCN(C(=O)Cc2c[nH]c3ncccc23)C(c2ncc(-c3ccc4ccccc4c3)[nH]2)C1 (stereo not shown) | 1.01 to 5 |
| Cn1cc(CC(=O)N2CCN(CC3CCOC3)CC2c2ncc(-c3ccc4ccccc4c3)[nH]2)c2ccccc21 (stereo not shown) | 0.1 to 0.5 |
| CN1CCN(C(=O)Cc2cn(C)c3ccccc23)C(c2ncc(-c3ccc4ccccc4c3)[nH]2)C1 (stereo not shown) | 1.01 to 5 |
| O=C(Cc1n[nH]c2ccccc12)N1CCN(CCc2ccccc2)CC1c1ncc(-c2ccc3ccccc3c2)[nH]1 (stereo not shown) | 1.01 to 5 |
| O=C(Cc1n[nH]c2ccccc12)N1CCN(CC2CCOC2)CC1c1ncc(-c2ccc3ccccc3c2)[nH]1 (stereo not shown) | 1.01 to 5 |
| Cc1[nH]c2ccccc2c1CC(=O)N1CCN(CCc2ccccc2)CC1c1ncc(-c2ccc3ccccc3c2)[nH]1 (stereo not shown) | 0.51 to 1 |
| Cc1csc(CC(=O)N2CCN(CCc3ccccc3)CC2c2ncc(-c3ccc4ccccc4c3)[nH]2)n1 (stereo not shown) | 1.01 to 5 |
| O=C(Cc1c[nH]c2ccc(O)cc12)N1CCN(CC2CCOC2)CC1c1ncc(-c2ccc3ccccc3c2)[nH]1 (stereo not shown) | 0.51 to 1 |
| COc1ccc2[nH]cc(CC(=O)N3CCN(CC4CCOC4)CC3c3ncc(-c4cc5ccccc5nc4OC)[nH]3)c2c1 (stereo not shown) | 0.1 to 0.5 |
| COc1ccc2[nH]c(C)c(CC(=O)N3CCNCC3c3ncc(-c4cc5ccccc5nc4OC)[nH]3)c2c1 (stereo not shown) | 0.51 to 1 |
| COc1ccc2[nH]c(C)c(CC(=O)N3CCN(C)CC3c3ncc(-c4ccc5ccccc5c4)n3C)c2c1 (stereo not shown) | 1.01 to 5 |
| COc1ccc2[nH]c(C)c(CC(=O)N3CCN(C)CC3c3ncc(-c4ccccc4)[nH]3)c2c1 (stereo not shown) | 1.01 to 5 |
| COc1ccc2c(CC(=O)N3CCN(CC4CCOC4)CC3c3ncc(-c4cc5ccccc5nc4OC)[nH]3)coc2c1 (stereo not shown) | 0.51 to 1 |
| COc1nc2ccccc2cc1-c1cnc(C2CN(CC3CCOC3)CCN2C(=O)Cc2noc3ccccc23)[nH]1 (stereo not shown) | 0.51 to 1 |
| O=C(Cc1nc2ccccc2o1)N1CCN(CC2CCOC2)CC1c1ncc(-c2ccc3ccccc3c2)[nH]1 (stereo not shown) | 0.51 to 1 |
| O=C(Cc1nc2ccccc2o1)N1CCN(CC2CC2)CC1c1ncc(-c2ccc3ccccc3c2)[nH]1 (stereo not shown) | 1.01 to 5 |
| COc1ccc2c(c1)C(CC(=O)N1CCN(CC3CC3)CC1c1ncc(-c3ccc4ccccc4c3)[nH]1)C(=O)N2 (stereo not shown) | 1.01 to 5 |
| COc1ccc2c(c1)C(CC(=O)N1CCN(Cc3ccccc3)CC1c1ncc(-c3ccc4ccccc4c3)[nH]1)C(=O)N2 (stereo not shown) | 0.51 to 1 |
| CCCCCCN1CCN(C(=O)CC2C(=O)Nc3ccc(OC)cc32)C(c2ncc(-c3ccc4ccccc4c3)[nH]2)C1 (stereo not shown) | 1.01 to 5 |

| SMILES | EC50 [µM] |
| --- | --- |
| COc1cccc(CCC(=O)N2CCN(CC3CCOC3)CC2c2ncc(-c3cc4ccccc4nc3OC)[nH]2)c1 (stereo not shown) | 1.01 to 5 |
| CNC(=O)CCCN1CCN(C(=O)Cc2c(C)[nH]c3ccc(OC)cc23)C(c2ncc(-c3ccc4ccccc4c3)[nH]2)C1 (stereo not shown) | 0.1 to 0.5 |
| COc1ccc2[nH]c(C)c(CC(=O)N3CCN(CCCC(N)=O)CC3c3ncc(-c4ccc5ccccc5c4)[nH]3)c2c1 (stereo not shown) | 0.1 to 0.5 |
| COc1ccc2c(c1)C(CC(=O)N1CCN(CC3CCOC3)CC1c1ncc(-c3cc4ccccc4nc3OC)[nH]1)C(=O)N2 (stereo not shown) | 1.01 to 5 |
| COc1ccc2c(c1)C(CC(=O)N1CCN(CC3CCOC3)CC1c1ncc(-c3ccc4ccccc4c3)[nH]1)C(=O)N2 (stereo not shown) | 1.01 to 5 |
| COc1ccc2c(c1)C(CC(=O)N1CCN(CCc3ccccc3)CC1c1ncc(-c3ccc4ccccc4c3)[nH]1)C(=O)N2 (stereo not shown) | 0.51 to 1 |
| COc1ccc2c(c1)C(CC(=O)N1CCN(C)CC1c1ncc(-c3ccc4ccccc4c3)[nH]1)C(=O)N2 (stereo not shown) | 1.01 to 5 |
| CCC(=O)CCCN1CCN(C(=O)Cc2ccccc2)C(c2ncc(-c3cc4ccccc4nc3OC)[nH]2)C1 (stereo not shown) | 1.01 to 5 |
| CCC(=O)CCCN1CCN(S(=O)(=O)c2ccc3ccccc3c2)C(c2ncc(-c3ccc4ccccc4c3)[nH]2)C1 (stereo not shown) | 1.01 to 5 |
| CCC(=O)CCCN1CCN(C(=O)c2cncs2)C(c2ncc(-c3ccc4ccccc4c3)[nH]2)C1 (stereo not shown) | 1.01 to 5 |
| CCC(=O)CCCN1CCN(C(=O)C2CCN(C)CC2)C(c2ncc(-c3ccc4ccccc4c3)[nH]2)C1 (stereo not shown) | 1.01 to 5 |
| COc1nc2ccccc2cc1-c1cnc(C2CN(CC3CCOC3)CCN2C(=O)c2cc(C)n(Cc3ccccc3)n2)[nH]1 (stereo not shown) | 1.01 to 5 |
| COc1nc2ccccc2cc1-c1cnc(C2CN(CC3CCOC3)CCN2C(=O)c2ccc(C3CCCO3)s2)[nH]1 (stereo not shown) | 1.01 to 5 |
| COc1ccc2nc(O)cc(C(=O)N3CCN(CC4CCOC4)CC3c3ncc(-c4cc5ccccc5nc4OC)[nH]3)c2c1 (stereo not shown) | 1.01 to 5 |
| COc1ccc2c(c1)[C@H](CC(=O)N1CCN(C)CC1c1ncc(-c3ccc4ccccc4c3)[nH]1)C(=O)N2 (stereo partly shown) | 1.01 to 5 |
| COc1ccc(-c2ccc(C(=O)N3CCN(CC4CCOC4)CC3c3ncc(-c4cc5ccccc5nc4OC)[nH]3)o2)cc1 (stereo not shown) | 1.01 to 5 |
| COc1nc2ccccc2cc1-c1cnc(C2CN(CC3CCOC3)CCN2C(=O)c2cc3cc(OCc4ccccc4)ccc3[nH]2)[nH]1 (stereo not shown) | 1.01 to 5 |
| CO[C@@](C(=O)N1CCN(C)C[C@@H]1c1ncc(-c2ccc3ccccc3c2)[nH]1)(c1ccccc1)C(F)(F)F | 1.01 to 5 |
| CN1CCN(C(=O)Cc2ccccc2)[C@H](c2ncc(-c3ccc4ccccc4c3)[nH]2)C1 | 1.01 to 5 |
| CO[C@](C(=O)N1CCN(C)C[C@@H]1c1ncc(-c2ccc3ccccc3c2)[nH]1)(c1ccccc1)C(F)(F)F | 1.01 to 5 |
| COc1ccc2[nH]c(C)c(CC(=O)N3CCN(C(=O)OC(C)(C)C)CC3c3ncc(-c4cc5ccccc5nc4OC)[nH]3)c2c1 (stereo not shown) | 0.1 to 0.5 |
